{"source": "patent US20220220099A1", "about": "“BENZAMIDE COMPOUND, AND HERBICIDE” (Nippon Soda Co., Ltd., priority 2019, published 2022)", "data": [{"tested_on": "Apera spica-venti", "assay": "Test Example 2: spraying treatment on stems and leaves, herbicidal rate", "type": "in vivo", "settings": "spray amount of 16 g, three weeks later", "procedure": "Emulsion for testing was prepared according to the preparation method described in Test Example 1.\nA 150 cm^2 pot was filled with soil, and seeds of Avena sativa, Lolium multiflorum and Apera spica-venti were sowed on the surface layer, and after the soil was covered lightly, the Avena sativa, Lolium multiflorum and Apera spica-venti were grown in a greenhouse. At the point in time when Avena sativa was grown to a plant height of 16 to 20 cm, Lolium multiflorum was grown to a plant height of 10 to 14 cm, and Apera spica-venti was grown to a plant height of 2 to 4 cm, the emulsion for testing was diluted in such a way as to have a predetermined amount of an active ingredient and was sprayed on the leaves and stems in a spray amount of water of 250 L per hectare with a small-sized atomizer.\nThree weeks later, the weight of a living weed above the ground was measured for each weed in the nontreated zone and in the treated zone to calculate a herbicidal rate by the following calculation formula.\nHerbicidal rate (%)=(weight of living weed above ground in nontreated zone−weight of living weed above ground in treated zone)/(weight of living weed above ground in nontreated zone)×100 […]", "units": {"herbicidal activity (Apera spica-venti, follows Table 10)": "%"}, "values": [{"smiles": "O=C(Nc1nnnn1CC(F)(F)F)c1ccc(C(F)(F)F)c2c1CCCS2", "note": "[c-6]", "herbicidal activity (Apera spica-venti, follows Table 10)": "≥ 80"}]}, {"tested_on": "not given", "assay": "not given", "settings": "not given", "units": {"melting point": "°C"}, "values": [{"smiles": "COC1CS(=O)(=O)c2c(C(F)(F)F)ccc(C(=O)Nc3nnc(C)o3)c21", "note": "(stereo not drawn) [b-5]", "melting point": "206 to 207"}, {"smiles": "CCOC1CS(=O)(=O)c2c(C(F)(F)F)ccc(C(=O)Nc3nnnn3C)c21", "note": "(stereo not drawn) [b-1]", "melting point": "209 to 211"}, {"smiles": "Cn1nnnc1NC(=O)c1ccc(C(F)(F)F)c2c1C(Br)CS2(=O)=O", "note": "(stereo not drawn) [b-4]", "melting point": "209 to 211"}, {"smiles": "COC1Cc2c(C(=O)Nc3nnnn3C)ccc(C(F)(F)F)c2S(=O)(=O)C1", "note": "(stereo not drawn) [b-8]", "melting point": "226 to 228"}, {"smiles": "COCC1Cc2c(C(=O)Nc3nnnn3C)ccc(C(F)(F)F)c2S1(=O)=O", "note": "(stereo not drawn) [b-2]", "melting point": "215 to 217"}, {"smiles": "COc1ccc(N=S2(=O)CCCc3c(C(=O)Nc4nnnn4C)ccc(C(F)(F)F)c32)cc1", "note": "(stereo not drawn) [b-22]", "melting point": "123 to 124"}, {"smiles": "Cn1nnnc1NC(=O)c1ccc(C(F)(F)F)c2c1CCCS2(=O)=NC#N", "note": "(stereo not drawn) [b-19]", "melting point": "151 to 153"}, {"smiles": "Cc1nnc(NC(=O)c2ccc(C(F)(F)F)c3c2CCC(C)S3)o1", "note": "(stereo not drawn) [b-14]", "melting point": "182 to 183"}, {"smiles": "CC1CCc2c(C(=O)Nc3nnnn3C)ccc(C(F)(F)F)c2S1(=O)=O", "note": "(stereo not drawn) [b-12]", "melting point": "270 to 271"}, {"smiles": "Cn1nnnc1NC(=O)c1ccc(C(F)(F)F)c2c1C(O)CS2(=O)=O", "note": "(stereo not drawn) [b-3]", "melting point": "202 to 205"}, {"smiles": "Cn1nnnc1NC(=O)c1ccc(C(F)(F)F)c2c1CCCS2(=O)=Nc1ccccc1", "note": "(stereo not drawn) [b-23]", "melting point": "110 to 112"}, {"smiles": "COC1CSc2c(C(F)(F)F)ccc(C(=O)Nc3nnnn3C)c2C1", "note": "(stereo not drawn) [b-9]", "melting point": "168 to 170"}, {"smiles": "CC1CCc2c(C(=O)Nc3nnnn3C)ccc(C(F)(F)F)c2/S1=N/C#N", "note": "(stereo not drawn) [b-21]", "melting point": "117 to 120"}, {"smiles": "Cn1nnnc1NC(=O)c1ccc(C(F)(F)F)c2c1CCCS2(=O)=Nc1ccc(Cl)cc1", "note": "(stereo not drawn) [b-24]", "melting point": "113 to 114"}, {"smiles": "Cn1nnnc1NC(=O)c1ccc(C(F)(F)F)c2c1CCCS2", "note": "[a-37, N-(1-Methyl-1H-tetrazol-5-yl)-8-(trifluoromethyl)thiochromane-5-carboxamide]", "melting point": "166 to 167"}, {"smiles": "Cn1nnnc1NC(=O)c1ccc(C(F)(F)F)c2c1C(F)CCS2", "note": "(stereo not drawn) [b-11]", "melting point": "132 to 135"}, {"smiles": "Cn1nnnc1NC(=O)c1ccc(C(F)(F)F)c2c1C(F)CCS2(=O)=O", "note": "(stereo not drawn) [b-10]", "melting point": "220 to 223"}]}]}
